Test system: Plasmodium berghei
Experiment: Luciferase/luciferin-expressing antifolate-resistant parasites were used to infect a culture of HepG2 cells that were pre-incubated with compounds. Infected hepatocytes emit light due to the luciferase reaction. Assay results are presented as the percent inhibition of light emission compared to control. […]
Type: functional
Details: sporozoite; for IC90: read-out: LUCIFERASE INFECTION ASSAY - IC90
[1] = read-out: LUCIFERASE INFECTION ASSAY - IC50

## O=C(NNc1cccc(Cl)c1)c1c[nH]c(=S)n1-c1ccccc1
PBLUC_HILL_SLOPE 16, PBLUC_R_SQUARED 0.438, read-out: LUCIFERASE INFECTION ASSAY - IC50
  IC50: 9.92 µM
  IC90: > 10 µM

## Cc1nc2ccccc2nc1SCC(=O)c1ccc(NS(C)(=O)=O)cc1
FFLUC_HILL_SLOPE 1.05, FFLUC_R_SQUARED 0.177, HEPG2TOX_HILL_SLOPE 1.12, HEPG2TOX_R_SQUARED 0.682, read-out: LUCIFERASE INFECTION ASSAY - IC50
  IC50: > 10 µM
  IC90: > 10 µM

## Cc1ccc(/N=c2\scc(-c3cccc(C(F)(F)F)c3)n2/N=C/c2ccc3ncccc3c2)c(C)c1
FFLUC_HILL_SLOPE 2.84, FFLUC_R_SQUARED 0.529, read-out: LUCIFERASE INFECTION ASSAY - IC50
  IC50: > 10 µM
  IC90: > 10 µM

## COc1cccc(-c2nc(C(=O)Nc3ccc4nc(C(C)(C)C)[nH]c4c3)cs2)c1OC
HEPG2TOX_HILL_SLOPE 10.6, HEPG2TOX_R_SQUARED 0.787, PBLUC_HILL_SLOPE 3.59, PBLUC_R_SQUARED 0.651, read-out: LUCIFERASE INFECTION ASSAY - IC50
  IC50: 4.99 µM
  IC90: 9.22 µM

## C=CCc1c(C)nc2c(-c3ccccc3)cnn2c1N1CCN(CCO)CC1
PBLUC_HILL_SLOPE 1.51, PBLUC_R_SQUARED 0.304, read-out: LUCIFERASE INFECTION ASSAY - IC50
  IC50: 2.98 µM
  IC90: > 8.74 µM

## Cc1cc(O)cc2c1C(=O)/C(=C/c1ccc(F)cc1)O2
[1]
  IC50: > 12.2 µM
  IC90: > 12.2 µM

## CCc1ccc2nc(NC(=O)c3cnccn3)sc2c1
HEPG2TOX_HILL_SLOPE 14.5, HEPG2TOX_R_SQUARED 0.913, PBLUC_HILL_SLOPE 21.7, PBLUC_R_SQUARED 0.176, read-out: LUCIFERASE INFECTION ASSAY - IC50
  IC50: 8.73 µM
  IC90: 9.66 µM

## CN1CCC2(CC1)CC(Nc1ccc(C(F)(F)F)cc1[N+](=O)[O-])c1ccccc1O2 (centres undefined)
PBLUC_HILL_SLOPE 1.75, PBLUC_R_SQUARED 0.131, read-out: LUCIFERASE INFECTION ASSAY - IC50
  IC50: > 10 µM
  IC90: > 10 µM

## Cc1ccccc1CN1CCN2C=C(C(=O)Nc3cccc(OC(F)(F)F)c3)OC2=NC1=O
FFLUC_HILL_SLOPE 6.71, FFLUC_R_SQUARED 0.0114, read-out: LUCIFERASE INFECTION ASSAY - IC50
  IC50: > 10 µM
  IC90: > 10 µM

## Cc1[nH]c(-c2ccccn2)nc(=O)c1CC(=O)NC1CCCCCCC1
PBLUC_HILL_SLOPE 61.7, PBLUC_R_SQUARED 0.378, read-out: LUCIFERASE INFECTION ASSAY - IC50
  IC50: 1.65 µM
  IC90: 1.71 µM

## CCn1c(-c2cc(C(=O)c3ccccc3O)c[nH]2)nc2ccccc21
HEPG2TOX_HILL_SLOPE 7.78, HEPG2TOX_R_SQUARED 0.356, PBLUC_HILL_SLOPE 1.9, PBLUC_R_SQUARED 0.373, read-out: LUCIFERASE INFECTION ASSAY - IC50
  IC50: 6.07 µM
  IC90: > 10 µM

## CC(C)(C)c1ccccc1NC(=O)c1csc(N2CCN(CCc3ccccc3)C2=O)n1
PBLUC_HILL_SLOPE 20.4, PBLUC_R_SQUARED 0.59, read-out: LUCIFERASE INFECTION ASSAY - IC50
  IC50: 9.01 µM
  IC90: > 10 µM

## COc1ccc(-c2cs/c(=N\c3ccccc3C(F)(F)F)n2/N=C/c2ccc(O)c(O)c2)cc1
HEPG2TOX_HILL_SLOPE 0.402, HEPG2TOX_R_SQUARED 0.786, PBLUC_HILL_SLOPE 2.07, PBLUC_R_SQUARED 0.586, read-out: LUCIFERASE INFECTION ASSAY - IC50
  IC50: 3.82 µM
  IC90: > 10 µM

## COC(=O)c1ccc2c(=O)n(-c3ccccc3)c(SC3CCCCC3=O)nc2c1 (centres undefined)
[1]
  IC50: > 10 µM
  IC90: > 10 µM

## NC(=O)C(C(=O)/C=C/c1ccc(Cl)cc1)=C1SCS1
PBLUC_HILL_SLOPE 78.5, PBLUC_R_SQUARED 0.479, read-out: LUCIFERASE INFECTION ASSAY - IC50
  IC50: 4.62 µM
  IC90: 4.75 µM

## O=S(=O)(c1ccc(Cl)cc1)c1nc(Nc2ccccc2)sc1Cl
HEPG2TOX_HILL_SLOPE 3.54, HEPG2TOX_R_SQUARED 0.784, PBLUC_HILL_SLOPE 12.5, PBLUC_R_SQUARED 0.109, read-out: LUCIFERASE INFECTION ASSAY - IC50
  IC50: 9.24 µM
  IC90: > 10 µM

## CN(C(=O)CCN1C(=O)CCC1=O)c1ccccc1
[1]
  IC50: > 10 µM
  IC90: > 10 µM

## CNc1nc2cnc(Nc3cccc(N(C)C)c3)cc2n1-c1cccc(C(F)(F)F)c1
[1]
  IC50: > 10 µM
  IC90: > 10 µM

## CCNC(=O)C1CCCN(C(=O)c2c(-c3ccccc3)noc2C)CC1 (centres undefined)
[1]
  IC50: > 9.28 µM
  IC90: > 9.28 µM

## CSc1sc(-c2cc[nH]n2)c(-c2ccccc2)c1C#N
[1]
  IC50: > 11.1 µM
  IC90: > 11.1 µM

## O=C(NCCO)c1cccc(-c2ccc3ncc(-c4cccc(OC(F)(F)F)c4)n3n2)c1
PBLUC_HILL_SLOPE 3.2, PBLUC_R_SQUARED 0.416, read-out: LUCIFERASE INFECTION ASSAY - IC50
  IC50: 5.01 µM
  IC90: 9.96 µM

## CN(Cc1ccccc1N1CCOCC1)C(=O)/C=C/c1c(Cl)nc2ccccn12
[1]
  IC50: > 10 µM
  IC90: > 10 µM

## O=C(Nc1ccc(OC(F)(F)F)cc1)Nc1ccc2nc(-c3ccc(F)c(Cl)c3)nn2c1
PBLUC_HILL_SLOPE 3.06, PBLUC_R_SQUARED 0.207, read-out: LUCIFERASE INFECTION ASSAY - IC50
  IC50: 7.2 µM
  IC90: > 10 µM

## Cc1ccc(-n2c(SC(C)C(=O)NCCc3cccs3)nnc2-c2ccccc2F)cc1 (centres undefined)
FFLUC_HILL_SLOPE 1.87, FFLUC_R_SQUARED 0.282, HEPG2TOX_HILL_SLOPE 0.0378, HEPG2TOX_R_SQUARED 0.0131, PBLUC_HILL_SLOPE 12.6, PBLUC_R_SQUARED 0.129, read-out: LUCIFERASE INFECTION ASSAY - IC50
  IC50: > 10 µM
  IC90: > 10 µM

## O=C(Cc1cn(-c2ccccc2)nc1-c1ccc(Cl)cc1)NCc1ccc(Cn2ccnc2)cc1
PBLUC_HILL_SLOPE 23, PBLUC_R_SQUARED 0.395, read-out: LUCIFERASE INFECTION ASSAY - IC50
  IC50: 9.71 µM
  IC90: > 10 µM

## N#Cc1c(SCc2ccccc2)nc2c(c1-c1cccs1)CCCC2
FFLUC_HILL_SLOPE 16.1, FFLUC_R_SQUARED 0.0835, PBLUC_HILL_SLOPE 1.89, PBLUC_R_SQUARED 0.544, read-out: LUCIFERASE INFECTION ASSAY - IC50
  IC50: 3.48 µM
  IC90: > 9.1 µM

## COC(=O)c1occc1CSc1nc2ccc(Br)cc2c(=O)n1-c1ccccc1
PBLUC_HILL_SLOPE 130, PBLUC_R_SQUARED 0.0623, read-out: LUCIFERASE INFECTION ASSAY - IC50
  IC50: 10 µM
  IC90: > 10 µM

## COc1ccc(CCN(C)c2ccc(S(=O)(=O)N(C(C)C)C(C)C)cn2)cc1OC
PBLUC_HILL_SLOPE 2.91, PBLUC_R_SQUARED 0.109, read-out: LUCIFERASE INFECTION ASSAY - IC50
  IC50: 5.86 µM
  IC90: > 10 µM

## O=S(=O)(NC1CCCCCCC1)c1ccc(S(=O)(=O)C(F)F)cc1
HEPG2TOX_HILL_SLOPE 11.1, HEPG2TOX_R_SQUARED 0.22, read-out: LUCIFERASE INFECTION ASSAY - IC50
  IC50: > 10 µM
  IC90: > 10 µM

## CCOC(=O)c1cc(C#N)c(C)nc1Sc1ccccc1NC(=O)Nc1ccc(SC(F)(F)F)cc1
[1]
  IC50: > 6.2 µM
  IC90: > 6.2 µM

## Oc1ccc(Cl)cc1/C=N/Nc1cccc(C(F)(F)F)c1
HEPG2TOX_HILL_SLOPE 5.54, HEPG2TOX_R_SQUARED 0.477, read-out: LUCIFERASE INFECTION ASSAY - IC50
  IC50: > 10.5 µM
  IC90: > 10.5 µM

## CCC(C)(C)c1ccc(Oc2ccc(NC(=O)COC(=O)c3cc(-c4cc(OC)c(OC)c(OC)c4)nc4ccccc34)cc2)cc1
PBLUC_HILL_SLOPE 0.863, PBLUC_R_SQUARED 0.508, read-out: LUCIFERASE INFECTION ASSAY - IC50
  IC50: 2.17 µM
  IC90: > 10 µM

## COCCn1cnc2c1c(=O)n(CC(=O)NC1(C#N)CCCCCC1)c(=O)n2CC(C)C
[1]
  IC50: > 10 µM
  IC90: > 10 µM

## CN=C1NN=C(c2cc(C)n(-c3ccc(OC)cc3)c2C)CS1
PBLUC_HILL_SLOPE 1.15, PBLUC_R_SQUARED 0.417, read-out: LUCIFERASE INFECTION ASSAY - IC50
  IC50: > 10 µM
  IC90: > 10 µM

## O=C(OCCSc1ccc([N+](=O)[O-])c2nonc12)c1ccc(F)cc1
FFLUC_HILL_SLOPE 1.52, FFLUC_R_SQUARED 0.911, HEPG2TOX_HILL_SLOPE 8.69, HEPG2TOX_R_SQUARED 0.77, PBLUC_HILL_SLOPE 16.5, PBLUC_R_SQUARED 0.0304, read-out: LUCIFERASE INFECTION ASSAY - IC50
  IC50: > 9.08 µM
  IC90: > 9.08 µM

## CC1(C)CC(N2CCN(C(c3ccccc3)c3ccccc3)CC2)=CC(=[N+]2CCCCC2)C1
HEPG2TOX_HILL_SLOPE 2.29, HEPG2TOX_R_SQUARED 0.813, PBLUC_HILL_SLOPE 10.9, PBLUC_R_SQUARED 0.679, read-out: LUCIFERASE INFECTION ASSAY - IC50
  IC50: 1.36 µM
  IC90: 1.67 µM

## OCCCNc1nc(-c2ccccc2)nc2sc(-c3ccccc3)cc12
[1]
  IC50: > 10 µM
  IC90: > 10 µM

## CC(c1ccc(-n2cncn2)cc1)N(C)c1ccc2nnnn2n1 (centres undefined)
[1]
  IC50: > 10 µM
  IC90: > 10 µM

## COc1ccc(OC)c(CCNc2nc3cnc(-c4ccc5c(c4)OCO5)cc3n2C)c1
HEPG2TOX_HILL_SLOPE 2.94, HEPG2TOX_R_SQUARED 0.93, PBLUC_HILL_SLOPE 1.47, PBLUC_R_SQUARED 0.742, read-out: LUCIFERASE INFECTION ASSAY - IC50
  IC50: 0.558 µM
  IC90: 2.5 µM

## Cc1ccc(-c2nnc(SCC(=O)c3c(N)n(C)c(=O)n(C)c3=O)nc2-c2ccc(C)cc2)cc1
FFLUC_HILL_SLOPE 1.03, FFLUC_R_SQUARED 0.511, read-out: LUCIFERASE INFECTION ASSAY - IC50
  IC50: > 10 µM
  IC90: > 10 µM

## CCCNC(=O)COc1ccc(Nc2ccccc2)cc1
[1]
  IC50: > 10 µM
  IC90: > 10 µM

## Cc1sc2nc(-c3cccnc3)nc(N(C)Cc3cccnc3)c2c1C
PBLUC_HILL_SLOPE 7.84, PBLUC_R_SQUARED 0.586, read-out: LUCIFERASE INFECTION ASSAY - IC50
  IC50: 7.28 µM
  IC90: 9.64 µM
